Among the data in patent publication US20230346961A1, “GLP-1 AND GIP RECEPTOR CO-AGONISTS” (Novo Nordisk A/S, priority 2020, published 2023) are EC50 values, retold here.

The structures appear in SMILES notation. Starred links: 1 amine or outer side, 2 acyl side, 3 side chain; linkers in the order of their positions; H or OH if unused. Non-standard residues stand in square brackets, D forms with d. Residues, ends and D or L forms follow the SMILES beside them. Groups on a side chain read outwards from the residue. *: point of attachment. C20 diacid = O=C(O)CCCCCCCCCCCCCCCCCCC(=O)*; γGlu = O=C(O)[C@H](CCC(=O)[*:2])N[*:1]; εLys = N[C@@H](CCCCN[*:1])C(=O)[*:2]; Trx = NC[C@H]1CC[C@H](C(=O)O)CC1; AEEA = NCCOCCOCC(=O)O; Aib = CC(C)(N)C(=O)O Bounds are passed on as bounds.

One experiment addresses human GLP-1 receptor (Homo sapiens, UniProt P43220). The experiment in a line: cell-based. As to conditions: hGLP-1R.
The target in another experiment is human glucagon receptor (Homo sapiens, UniProt P47871). Kind of experiment: cell-based.
Sequence of human glucagon receptor (P47871 26-477): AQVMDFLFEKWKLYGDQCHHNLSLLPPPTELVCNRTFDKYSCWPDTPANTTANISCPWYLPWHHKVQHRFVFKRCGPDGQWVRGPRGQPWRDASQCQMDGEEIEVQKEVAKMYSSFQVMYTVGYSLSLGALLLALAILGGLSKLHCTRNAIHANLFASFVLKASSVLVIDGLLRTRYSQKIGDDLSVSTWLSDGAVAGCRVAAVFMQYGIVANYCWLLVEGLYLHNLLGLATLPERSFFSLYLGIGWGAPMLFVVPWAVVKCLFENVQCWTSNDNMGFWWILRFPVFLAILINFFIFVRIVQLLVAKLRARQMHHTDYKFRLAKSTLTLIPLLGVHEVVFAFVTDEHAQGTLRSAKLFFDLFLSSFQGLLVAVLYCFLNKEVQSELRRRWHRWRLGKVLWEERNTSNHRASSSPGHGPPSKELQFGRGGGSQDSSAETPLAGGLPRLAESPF
The target in another experiment is T1, mouse GLP-1 receptor (Mus musculus, UniProt O35659).
T1 sequence (O35659 22-463): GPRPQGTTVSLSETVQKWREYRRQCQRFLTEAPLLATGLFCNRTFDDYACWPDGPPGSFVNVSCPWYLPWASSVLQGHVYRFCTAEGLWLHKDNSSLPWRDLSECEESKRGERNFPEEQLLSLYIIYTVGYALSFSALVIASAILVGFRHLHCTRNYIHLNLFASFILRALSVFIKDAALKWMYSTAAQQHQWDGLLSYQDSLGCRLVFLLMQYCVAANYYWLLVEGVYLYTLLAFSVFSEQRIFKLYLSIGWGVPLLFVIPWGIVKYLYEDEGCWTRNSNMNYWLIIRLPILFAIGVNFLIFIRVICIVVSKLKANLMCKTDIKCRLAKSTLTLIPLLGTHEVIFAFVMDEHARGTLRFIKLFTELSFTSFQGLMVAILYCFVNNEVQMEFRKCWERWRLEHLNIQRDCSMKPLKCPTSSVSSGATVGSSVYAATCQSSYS

The target in another experiment is T2, mouse GIP receptor (Mus musculus, UniProt Q0P543).
T2 sequence (Q0P543 19-460): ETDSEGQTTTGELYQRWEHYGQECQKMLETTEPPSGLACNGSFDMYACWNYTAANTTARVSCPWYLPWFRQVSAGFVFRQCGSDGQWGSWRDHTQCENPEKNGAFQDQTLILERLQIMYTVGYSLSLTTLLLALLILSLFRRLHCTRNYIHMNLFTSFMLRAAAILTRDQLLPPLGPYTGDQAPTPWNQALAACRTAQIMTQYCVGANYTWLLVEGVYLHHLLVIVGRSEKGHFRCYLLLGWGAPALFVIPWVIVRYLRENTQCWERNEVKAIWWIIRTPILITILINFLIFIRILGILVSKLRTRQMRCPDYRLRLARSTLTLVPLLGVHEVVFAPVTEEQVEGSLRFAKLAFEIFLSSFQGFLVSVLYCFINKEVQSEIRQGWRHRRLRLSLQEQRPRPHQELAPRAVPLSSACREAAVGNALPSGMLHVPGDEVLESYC
Kind of experiment: cell-based.

Sequence of human GLP-1 receptor (P43220 24-463): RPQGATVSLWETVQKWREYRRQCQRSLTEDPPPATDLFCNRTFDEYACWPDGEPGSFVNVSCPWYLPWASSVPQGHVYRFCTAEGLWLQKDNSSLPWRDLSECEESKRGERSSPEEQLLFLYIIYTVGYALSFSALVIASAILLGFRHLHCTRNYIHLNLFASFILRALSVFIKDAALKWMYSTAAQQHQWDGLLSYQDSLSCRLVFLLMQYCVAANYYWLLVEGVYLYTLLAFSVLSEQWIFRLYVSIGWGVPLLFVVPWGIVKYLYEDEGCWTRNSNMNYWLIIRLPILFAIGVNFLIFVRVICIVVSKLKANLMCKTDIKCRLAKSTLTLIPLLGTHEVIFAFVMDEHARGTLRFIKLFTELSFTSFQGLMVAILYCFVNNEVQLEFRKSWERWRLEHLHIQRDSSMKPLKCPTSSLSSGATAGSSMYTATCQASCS
Method for mouse GIP receptor: The in vitro functional potency is the measure of target receptor activation in a whole cell assay.
In vitro functional potency was determined by measuring the response of the target receptor in a reporter gene assay in individual cell lines. […] When the respective receptor is activated, it results in the production of cAMP, which in turn results in expression of the luciferase protein. When assay incubation is completed, luciferase substrate (luciferin) is added resulting in the enzymatic conversion of luciferin to oxyluciferin and producing bioluminescence. The luminescence is measured as the readout for the assay.
The cells lines used in these assays were BHK cells with BHKTS13 as a parent cell line. The cell lines were derived from a clone containing the CRE luciferase element and were established by further transfection with the respective receptor to obtain the relevant cell line.
The cells were cultured at 37° C. with 5% CO2 in Cell Culture Medium. They were aliquoted and stored in liquid nitrogen. The cells were kept in continuous culture and were seeded out the day before each assay.
GLP-1R and GcgR Cell Culture Medium consisted of DMEM medium with 10% FBS, 500 μg/mL G418, and 300 μg/mL hygromycin. GIPR Cell Culture Medium consisted of DMEM medium with 10% FBS, 400 μg/mL G418, and 300 μg/mL hygromycin. Assay Buffer consisted of DMEM w/o phenol red, 10 mM Hepes, 1×Glutamax, 1% ovalbumin, and 0.1% Pluronic F-68 with the addition of HSA at twice the final assay concentration.
• 1) Cells were plated at 5000 cells/well and incubated overnight in the assay plate. • 2) Cells were washed once in DPBS. • 3) Stocks of the test compounds and reference compounds in concentrations ranging from 100-300 μM were diluted 1:150 in Assay Buffer. Compounds were then diluted 1:10 in column 1 of a 96 deep well dilution plate and then carried across the row creating a 3.5 fold, 12 point dilution curve. • 4) Assay Buffer (50 μl aliquot) with or without HSA was added to each well in the assay plate. • 5) A 50 μl aliquot of compound or blank was transferred from the dilution plate to the assay plate containing the Assay Buffer with or without HSA. • 6) The assay plate was incubated for 3 h in a 5% CO2 incubator at 37° C. 7) The cells were washed once with DPBS. • 8) A 100 μl aliquot of DPBS was added to each well of the assay plate. • 9) A 100 μl aliquot of steadylite plus reagent (light sensitive) was added to each well of the assay plate. • 10) Each assay plate was covered with aluminum foil to protect it from light and shaken at 250 RPM for 30 min at room temperature. • 11) Each assay plate was read in a microtiter plate reader.
The data from the microtiter plate reader was first regressed in an Excel in order to calculate the x-axis, log scale concentrations based on the individual test compound's stock concentration and the dilutions of the assay. […] The software performs a non-linear regression (log(agonist) vs response). A minimum of two replicates was measured for each sample. The reported values are averages of the replicates.

In the case of `CC[C@H](C)[C@H](NC(=O)[C@H](CO)NC(=O)[C@H](Cc1ccc(O)cc1)NC(=O)[C@H](CC(=O)O)NC(=O)[C@H](CO)NC(=O)[C@@H](NC(=O)[C@H](Cc1ccccc1)NC(=O)[C@@H](NC(=O)CNC(=O)[C@H](CCC(=O)O)NC(=O)C(C)(C)NC(=O)[C@@H](N)Cc1ccc(O)cc1)[C@@H](C)O)[C@@H](C)O)C(=O)N[C@@H](Cc1ccc(O)cc1)C(=O)N[C@@H](CC(C)C)C(=O)N[C@@H](CCC(=O)O)C(=O)N[C@@H](CCCCN)C(=O)N[C@@H](CCCCNC(=O)[C@@H](N)CCCCNC(=O)[C@@H](N)CCCCNC(=O)CC[C@H](NC(=O)[C@H]1CC[C@H](CNC(=O)CCCCCCCCCCCCCCCCCCC(=O)O)CC1)C(=O)O)C(=O)N[C@@H](C)C(=O)N[C@@H](C)C(=O)NC(C)(C)C(=O)N[C@@H](CCC(=O)O)C(=O)N[C@@H](Cc1ccccc1)C(=O)N[C@H](C(=O)N[C@@H](CC(N)=O)C(=O)N[C@@H](Cc1c[nH]c2ccccc12)C(=O)N[C@@H](CC(C)C)C(=O)N[C@@H](CC(C)C)C(=O)N[C@@H](C)C(=O)NCC(=O)NCC(=O)N1CCC[C@H]1C(=O)N[C@@H](CO)C(=O)N[C@@H](CO)C(=O)NCC(=O)N[C@@H](C)C(=O)N1CCC[C@H]1C(=O)N1CCC[C@H]1C(=O)N1CCC[C@H]1C(=O)N[C@@H](CO)C(N)=O)C(C)C` [Compound 23] (H-Y[Aib]EGTFTSDYSIYLEKK([εLys-εLys-γGlu-Trx-C20 diacid])AA[Aib]EFVNWLLAGGPSSGAPPPS-NH2; N-terminus assumed), the EC50 is 0.004 nM on human GLP-1 receptor (CRE Luc 0% HSA EC50, 0% HSA); 0.178 nM at human GLP-1 receptor (CRE Luc 1% HSA EC50, 1% HSA); > 10 nM at human glucagon receptor; 0.0037 nM at mouse GLP-1 receptor; 0.0175 nM at mouse GIP receptor.

`CC[C@H](C)[C@H](NC(=O)[C@H](CO)NC(=O)[C@H](Cc1ccc(O)cc1)NC(=O)[C@H](CC(=O)O)NC(=O)[C@H](CO)NC(=O)[C@@H](NC(=O)[C@H](Cc1ccccc1)NC(=O)[C@@H](NC(=O)CNC(=O)[C@H](CCC(=O)O)NC(=O)C(C)(C)NC(=O)[C@@H](N)Cc1ccc(O)cc1)[C@@H](C)O)[C@@H](C)O)C(=O)N[C@@H](Cc1ccc(O)cc1)C(=O)N[C@@H](CC(C)C)C(=O)N[C@@H](CCC(=O)O)C(=O)N[C@@H](CCCCN)C(=O)N[C@@H](CCC(N)=O)C(=O)N[C@@H](C)C(=O)N[C@@H](C)C(=O)NC(C)(C)C(=O)N[C@@H](CCCCNC(=O)[C@@H](N)CCCCNC(=O)[C@@H](N)CCCCNC(=O)CC[C@H](NC(=O)[C@H]1CC[C@H](CNC(=O)CCCCCCCCCCCCCCCCCCC(=O)O)CC1)C(=O)O)C(=O)N[C@@H](Cc1ccccc1)C(=O)N[C@H](C(=O)N[C@@H](CCC(N)=O)C(=O)N[C@@H](Cc1c[nH]c2ccccc12)C(=O)N[C@@H](CC(C)C)C(=O)N[C@@H](CC(C)C)C(=O)N[C@@H](CCC(=O)O)C(=O)NCC(=O)NCC(=O)N1CCC[C@H]1C(=O)N[C@@H](CO)C(=O)N[C@@H](CO)C(=O)NCC(=O)N[C@@H](C)C(=O)N1CCC[C@H]1C(=O)N1CCC[C@H]1C(=O)N1CCC[C@H]1C(=O)N[C@@H](CO)C(N)=O)C(C)C` [Compound 24] (H-Y[Aib]EGTFTSDYSIYLEKQAA[Aib]K([εLys-εLys-γGlu-Trx-C20 diacid])FVQWLLEGGPSSGAPPPS-NH2; N-terminus assumed): the EC50 on human GLP-1 receptor (CRE Luc 0% HSA EC50, 0% HSA) was 0.0047 nM; on human GLP-1 receptor (CRE Luc 1% HSA EC50, 1% HSA), 0.114 nM; on human glucagon receptor it was > 10 nM; at mouse GLP-1 receptor it was 0.0099 nM; on mouse GIP receptor it was 0.0405 nM.

For `CC[C@H](C)[C@H](NC(=O)[C@H](CO)NC(=O)[C@H](Cc1ccc(O)cc1)NC(=O)[C@H](CC(=O)O)NC(=O)[C@H](CO)NC(=O)[C@@H](NC(=O)[C@H](Cc1ccccc1)NC(=O)[C@@H](NC(=O)CNC(=O)[C@H](CCC(=O)O)NC(=O)C(C)(C)NC(=O)[C@@H](N)Cc1ccc(O)cc1)[C@@H](C)O)[C@@H](C)O)C(=O)N[C@@H](Cc1ccc(O)cc1)C(=O)N[C@@H](CC(C)C)C(=O)N[C@@H](CCC(=O)O)C(=O)N[C@@H](CCCCNC(=O)COCCOCCNC(=O)COCCOCCNC(=O)CC[C@H](NC(=O)CCCCCCCCCCCCCCCCCCC(=O)O)C(=O)O)C(=O)N[C@@H](CCC(N)=O)C(=O)N[C@@H](C)C(=O)N[C@@H](C)C(=O)NC(C)(C)C(=O)N[C@@H](CCC(=O)O)C(=O)N[C@@H](Cc1ccccc1)C(=O)N[C@H](C(=O)N[C@@H](CC(N)=O)C(=O)N[C@@H](Cc1c[nH]c2ccccc12)C(=O)N[C@@H](CC(C)C)C(=O)N[C@@H](CC(C)C)C(=O)N[C@@H](C)C(=O)NCC(=O)NCC(=O)N1CCC[C@H]1C(=O)N[C@@H](CO)C(=O)N[C@@H](CO)C(=O)NCC(=O)N[C@@H](C)C(=O)N1CCC[C@H]1C(=O)N1CCC[C@H]1C(=O)N1CCC[C@H]1C(=O)N[C@@H](CO)C(N)=O)C(C)C` [Compound 29] (H-Y[Aib]EGTFTSDYSIYLEK([AEEA-AEEA-γGlu-C20 diacid])QAA[Aib]EFVNWLLAGGPSSGAPPPS-NH2; N-terminus assumed), the EC50 on human GLP-1 receptor (CRE Luc 0% HSA EC50, 0% HSA) was 0.0062 nM; at human GLP-1 receptor (CRE Luc 1% HSA EC50, 1% HSA), 0.429 nM; on human glucagon receptor, > 10 nM; at mouse GLP-1 receptor, 0.0018 nM; on mouse GIP receptor, 0.051 nM.

For the compound `CC[C@H](C)[C@H](NC(=O)[C@H](CO)NC(=O)[C@H](Cc1ccc(O)cc1)NC(=O)[C@H](CC(=O)O)NC(=O)[C@H](CO)NC(=O)[C@@H](NC(=O)[C@H](Cc1ccccc1)NC(=O)[C@@H](NC(=O)CNC(=O)[C@H](CCC(=O)O)NC(=O)C(C)(C)NC(=O)[C@@H](N)Cc1ccc(O)cc1)[C@@H](C)O)[C@@H](C)O)C(=O)N[C@@H](Cc1ccc(O)cc1)C(=O)N[C@@H](CC(C)C)C(=O)N[C@@H](CCC(=O)O)C(=O)N[C@@H](CCCCN)C(=O)N[C@@H](CCCCNC(=O)[C@@H](N)CCCCNC(=O)[C@@H](N)CCCCNC(=O)CC[C@H](NC(=O)CCCCCCCCCCCCCCCCCCC(=O)O)C(=O)O)C(=O)N[C@@H](C)C(=O)N[C@@H](C)C(=O)NC(C)(C)C(=O)N[C@@H](CCC(=O)O)C(=O)N[C@@H](Cc1ccccc1)C(=O)N[C@H](C(=O)N[C@@H](CC(N)=O)C(=O)N[C@@H](Cc1c[nH]c2ccccc12)C(=O)N[C@@H](CC(C)C)C(=O)N[C@@H](CC(C)C)C(=O)N[C@@H](C)C(=O)NCC(=O)NCC(=O)N1CCC[C@H]1C(=O)N[C@@H](CO)C(=O)N[C@@H](CO)C(=O)NCC(=O)N[C@@H](C)C(=O)N1CCC[C@H]1C(=O)N1CCC[C@H]1C(=O)N1CCC[C@H]1C(=O)N[C@@H](CO)C(N)=O)C(C)C` [Compound 31] (H-Y[Aib]EGTFTSDYSIYLEKK([εLys-εLys-γGlu-C20 diacid])AA[Aib]EFVNWLLAGGPSSGAPPPS-NH2; N-terminus assumed), the concentration giving a half-maximal response (EC50) at human GLP-1 receptor (CRE Luc 0% HSA EC50, 0% HSA) amounted to 0.0019 nM; at human GLP-1 receptor (CRE Luc 1% HSA EC50, 1% HSA) it was 0.0543 nM; on human glucagon receptor, 9.6 nM; at mouse GLP-1 receptor it was 0.0013 nM; on mouse GIP receptor, 0.0134 nM.
